Measurements from paper PMC10331583, “Control of fibrosis with enhanced safety via asymmetric inhibition of prolyl‐tRNA synthetase 1” (EMBO Molecular Medicine, 2023).
Several values for one entry are separate records, joined by “and”; a condition that tells them apart may be missing. Identical values can stand only once.

What was measured:
[1] = Two‐week repeated‐dose toxicity study, HF versus DWN12088; format: in vivo, mice; conditions: male, ICR (CrljOri: CD1), mouse, in vivo; oral once daily for 2 weeks, ICR mice
Protocol: (§1) To compare the in vivo toxicity of HF and DWN12088, all experiments were conducted following the international guidelines on the ethical use of experimental animals and approved by the Institutional Animal Care and Use Committee of KNOTUS (KNOTUS IACUC 21‐KE‐250 and KNOTUS IACUC 21‐KE‐359). ICR (CrljOri: CD1) mice (7‐week‐old, male, obtained from Koatech) were randomized (n = 6 for each group) and then orally administered with the indicated amounts of HF or DWN12088 once daily for 2 weeks. In the high‐dose group, the dose of DWN12088 was reduced from 120 mg/kg to 90 mg/kg from day 6. […] Body weight was measured at day 1, 2, 3, 4, 5, 8, 14, and 15.
(§2) After administering the drugs for 2 weeks, mice were fasted overnight and anesthetized with isoflurane. Blood samples were collected in EDTA‐coated tubes, and the following parameters were determined using a hematology analyzer (ADVIA 2120, SIEMENS, USA); red blood cell, platelet count, hematocrit, white blood cell, red cell distribution width, hemoglobin concentration distribution width, hemoglobin concentration, neutrophil, mean corpuscular volume, lymphocyte, mean cell hemoglobin, monocyte, mean cell hemoglobin concentration, eosinophil, mean platelet volume, basophil, reticulocytes, and large unstained cells.
(§3) For clinical chemistry, the remaining blood samples were incubated in a vacutainer tube with clot activator and then centrifuged to prepare serum. The following parameters were measured in the serum using a chemistry analyzer (7180, Hitachi, Japan) and electrolyte analyzer (AVL 9180, Roche, Switzerland); aspartate aminotransferase, albumin, alanine aminotransferase, albumin/globulin ratio, alkaline phosphatase, blood urea nitrogen, creatine phosphokinase, creatinine, total bilirubin, inorganic phosphorus, glucose, calcium, total cholesterol, sodium, triglyceride, potassium, total protein, and chloride.
(§4) After blood collection, blood was drained by incising the abdominal aorta and posterior vena cava, and all organs of the skin, brain, thoracic cavity, and abdominal cavity were observed. The relative weights of the lung, spleen, liver, heart, kidney, thymus, and testes were calculated by dividing the weight of each organ by the body weight. The experiments were conducted as non‐blind test.

[2] = test system: ICR (CrljOri: CD1) mice; assay: as above; format: in vivo
Protocol: as §1, §2, §3, §4

[3] = target: T1, PARS1 WT (Homo sapiens, UniProt P07814); assay: Microscale thermophoresis (MST), PARS1 WT; format: binding; conditions: for Fraction bound: single replicates
T1 construct: His‐PARS1 (1001–1,512 aa); made in house; host or cells: Escherichia coli
T1 sequence (P07814 1001-1512 limits assumed): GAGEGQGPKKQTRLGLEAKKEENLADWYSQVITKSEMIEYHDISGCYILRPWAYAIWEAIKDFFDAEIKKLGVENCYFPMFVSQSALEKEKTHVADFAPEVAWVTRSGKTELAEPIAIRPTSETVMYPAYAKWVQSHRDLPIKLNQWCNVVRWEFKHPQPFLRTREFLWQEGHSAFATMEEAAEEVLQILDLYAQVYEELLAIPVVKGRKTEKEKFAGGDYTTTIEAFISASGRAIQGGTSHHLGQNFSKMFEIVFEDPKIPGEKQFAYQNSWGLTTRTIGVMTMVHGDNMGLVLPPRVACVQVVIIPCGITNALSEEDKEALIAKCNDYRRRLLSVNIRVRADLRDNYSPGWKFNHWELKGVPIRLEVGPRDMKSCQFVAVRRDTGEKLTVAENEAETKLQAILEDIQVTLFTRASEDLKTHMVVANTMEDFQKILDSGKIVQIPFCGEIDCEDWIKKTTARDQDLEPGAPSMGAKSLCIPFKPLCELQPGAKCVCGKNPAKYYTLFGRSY

[4] = test system: C57BL/6 mice; assay: Bleomycin‐induced lung fibrosis, therapeutic model 2 (compounds from 2 weeks after bleomycin); format: in vivo; conditions: model 2, drug administration from day 14
Protocol: To examine therapeutic efficacy of DWN12088, all experiments were conducted following the international guidelines on the ethical use of experimental animals and approved by the Institutional Animal Care and Use Committee of Daewoong Pharmaceutical (IACUC‐21‐014). C57BL/6 mice (7–8‐week‐old, male, obtained from Orient Bio) were anesthetized with Zoletil and injected intratracheally with 100 μl bleomycin (2 units/kg) (Merck, B8416) to induce lung fibrosis. A group of disease‐free mice (“untreated”) were injected with PBS instead of bleomycin. After a week, mice treated with bleomycin were randomized to (i) vehicle (saline), (ii) HF 0.05 mg/kg, (iii) HF 0.1 mg/kg, and (iv) DWN12088 10 mg/kg groups (n = 5 for each group) according to their body weight. The drugs were orally administered once daily for 2 weeks, and then the outcome was analyzed. For the experiments testing the effect of the compounds 2 weeks after bleomycin challenge, the experiment was approved by IACUC of Daewoong Pharmaceutical (IACUC‐22‐009). […]
The collagen contents of lung tissues were measured using Sircol™ soluble collagen assay (Biocolor Ltd., S1000) following the manufacturer's instructions. […] Tissue extracts were incubated with Sirius red dye, and the absorbance was determined at 540 nm using a spectrophotometer. […]

[5] = 120 ➔ 90 mg/kg (from day 6) oral once daily

O[C@H]1CCCN[C@@H]1CCCn1cnc2c(Cl)c(Cl)ccc21 [DWN12088]
NOAEL at 2 weeks [1]: 60 mg/kg | Hematology ↓ ([2]; 60 mg/kg oral once daily, 2 weeks): HGB, MCHC | Clinical chemistry ↑ [2, 5]: AST, ALT, ALP, GLU, BUN, CRE, IP, K^+ | Clinical chemistry ↓ [2, 5]: TP, TCHO | Clinical signs [2, 5]: Inanimation, hypothermia | Hematology ↓ [2, 5]: RBC, HGB, MCHC | Necropsy finding [2, 5]: • Pale liver (1/6) • Thymus atrophy (3/6) • Pale and large kidney (1/6) • Dark red contents in the stomach (1/6) | Organ weight ↑ [2, 5]: Kidney, liver | Organ weight ↓ [2, 5]: Spleen, thymus | Mortality: Terminal sacrifice ([2]; 120 ➔ 90 mg/kg (from day 6) oral once daily, days 2, 5, 6 and 12): Terminal sacrifice: 4/6 (Each animal on days 2, 5, 6, and 12) | reduction in body weight ([2]; all the tested doses): did not show weight loss | NOAEL of DWN12088 relative to that of HF ([2]; male, ICR (CrljOri: CD1), mouse, in vivo, 2 weeks): more than 160 times | Fraction bound, average ([3]; Dose 30.5176 nM): -0.2054 | Fraction bound ([3]; Dose 30.5176 nM): -0.1847 and -0.2552 and -0.1762 | Fraction bound, average ([3]; Dose 61.0352 nM): -0.1331 | Fraction bound ([3]; Dose 61.0352 nM): -0.1271 and -0.1077 and -0.1644 | Fraction bound, average ([3]; Dose 122.07 nM): -0.0578 | Fraction bound ([3]; Dose 122.07 nM): 0.0166 and -0.0399 and -0.1500 | Fraction bound, average ([3]; Dose 244.141 nM): 0.0543 | Fraction bound ([3]; Dose 244.141 nM): -0.0356 and 0.0851 and 0.1134 | Fraction bound, average ([3]; Dose 488.281 nM): -0.0068 | Fraction bound ([3]; Dose 488.281 nM): 0.0147 and -0.0499 and 0.0148 | Fraction bound, average ([3]; Dose 976.562 nM): 0.1887 | Fraction bound ([3]; Dose 976.562 nM): 0.1745 and 0.1271 and 0.2645 | Fraction bound, average ([3]; Dose 1953.12 nM): 0.3166 | Fraction bound ([3]; Dose 1953.12 nM): 0.2796 and 0.3408 and 0.3294 | Fraction bound, average ([3]; Dose 3906.25 nM): 0.1823 | Fraction bound ([3]; Dose 3906.25 nM): 0.1409 and 0.1539 and 0.2519 | Fraction bound, average ([3]; Dose 7812.5 nM): 0.3895 | Fraction bound ([3]; Dose 7812.5 nM): 0.3262 and 0.4199 and 0.4224 | Fraction bound, average ([3]; Dose 15625 nM): 0.4633 | Fraction bound ([3]; Dose 15625 nM): 0.4748 and 0.4733 and 0.4418 | Fraction bound, average ([3]; Dose 31250 nM): 0.5523 | Fraction bound ([3]; Dose 31250 nM): 0.4690 and 0.5423 and 0.6454 | Fraction bound, average ([3]; Dose 62500 nM): 0.5522 | Fraction bound ([3]; Dose 62500 nM): 0.5673 and 0.5892 and 0.5000 | Fraction bound, average ([3]; Dose 125000 nM): 0.7606 | Fraction bound ([3]; Dose 125000 nM): 0.7942 and 0.7665 and 0.7210 | Fraction bound, average ([3]; Dose 250000 nM): 0.9107 | Fraction bound ([3]; Dose 250000 nM): 0.9397 and 0.8612 and 0.9313 | Fraction bound, average ([3]; Dose 500000 nM): 1.0322 | Fraction bound ([3]; Dose 500000 nM): 1.1218 and 1.1050 and 0.8698 | Fraction bound, average ([3]; Dose 1000000 nM): 1.1170 | Fraction bound ([3]; Dose 1000000 nM): 1.1447 and 1.1049 and 1.1015 | Kd ([3]; Kd (Fit Results), His-PARS1 WT, doses of the sheet in nM): 20500 nM | Kd ([3]; Kd, MST, in the presence of ATP): 20000 nM | Kd ([3]; Kd, MST, in the presence of proline 30 μM): 79000 nM | Kd ([3]; Kd, MST, in the presence of proline 120 μM): 108000 nM | Kd ([3]; Kd, WT, 5 mM ATP, mean ± SD, unit inferred): 20500 ± 8580 nM | fibrotic properties [4]: less apparent

O=C(CC1NCCCC1O)Cn1cnc2cc(Br)c(Cl)cc2c1=O (stereo not drawn) [HF, Halofuginone, reference compound]
NOAEL at 2 weeks [1]: < 0.375 mg/kg | Mortality: Found dead ([2]; 1.5 mg/kg oral once daily, 1 animal on day 5, 2 on day 6): Found dead: 3/6 (1 animal on day 5, 2 animals on day 6) Terminal sacrifice: 3/6 (on day 6) | Mortality: Terminal sacrifice ([2]; 1.5 mg/kg oral once daily, on day 6): Found dead: 3/6 (1 animal on day 5, 2 animals on day 6) Terminal sacrifice: 3/6 (on day 6) | reduction in body weight ([2]; mouse, in vivo): > 10% | Fraction bound, average ([3]; Dose 3.0518 nM): -0.0712 | Fraction bound ([3]; Dose 3.0518 nM): -0.0993 and -0.0066 and -0.1077 | Fraction bound, average ([3]; Dose 6.1035 nM): -0.0015 | Fraction bound ([3]; Dose 6.1035 nM): 0.0287 and -0.0242 and -0.0091 | Fraction bound, average ([3]; Dose 12.207 nM): 0.0765 | Fraction bound ([3]; Dose 12.207 nM): 0.1266 and 0.0543 and 0.0485 | Fraction bound, average ([3]; Dose 24.4141 nM): 0.1050 | Fraction bound ([3]; Dose 24.4141 nM): 0.1952 and 0.1143 and 0.0054 | Fraction bound, average ([3]; Dose 48.8281 nM): 0.1434 | Fraction bound ([3]; Dose 48.8281 nM): 0.1825 and 0.1031 and 0.1448 | Fraction bound, average ([3]; Dose 97.6563 nM): 0.2466 | Fraction bound ([3]; Dose 97.6563 nM): 0.2751 and 0.2161 and 0.2485 | Fraction bound, average ([3]; Dose 195.312 nM): 0.5229 | Fraction bound ([3]; Dose 195.312 nM): 0.5425 and 0.5488 and 0.4774 | Fraction bound, average ([3]; Dose 390.625 nM): 0.7387 | Fraction bound ([3]; Dose 390.625 nM): 0.7958 and 0.7241 and 0.6962 | Fraction bound, average ([3]; Dose 781.25 nM): 0.9030 | Fraction bound ([3]; Dose 781.25 nM): 0.8890 and 0.8991 and 0.9209 | Fraction bound, average ([3]; Dose 1562.5 nM): 0.9612 | Fraction bound ([3]; Dose 1562.5 nM): 0.9380 and 1.0072 and 0.9382 | Fraction bound, average ([3]; Dose 3125 nM): 0.9287 | Fraction bound ([3]; Dose 3125 nM): 0.9278 and 0.9164 and 0.9420 | Fraction bound, average ([3]; Dose 6250 nM): 0.9609 | Fraction bound ([3]; Dose 6250 nM): 0.9251 and 0.9572 and 1.0004 | Fraction bound, average ([3]; Dose 12500 nM): 0.9979 | Fraction bound ([3]; Dose 12500 nM): 0.9525 and 1.0119 and 1.0291 | Fraction bound, average ([3]; Dose 25000 nM): 1.0497 | Fraction bound ([3]; Dose 25000 nM): 1.0026 and 1.0240 and 1.1224 | Fraction bound, average ([3]; Dose 50000 nM): 0.9548 | Fraction bound ([3]; Dose 50000 nM): 0.8756 and 0.9971 and 0.9917 | Fraction bound, average ([3]; Dose 100000 nM): 1.0743 | Fraction bound ([3]; Dose 100000 nM): 1.0331 and 1.0480 and 1.1418 | fibrotic properties [4]: less apparent
